We go through 78 compounds from the METLIN SMRT retention time set (Domingo-Almenara et al. 2019).

This data set can be described thus: gradient 5% acetonitrile 3 min, to 50% in 2 min, to 85% in 15 min, held 3 min, 100 µL/min. As to conditions: column: Zorbax Extend-C18 2.1 x 50 mm; eluents: water / acetonitrile, 0.1% formic acid. In short, it runs like this: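 Retention times come from adduct peaks that were picked computationally and then checked by hand. The standards, pure and pooled in mixtures of ~100 molecules, were run on a Zorbax Extend-C18 column (2.1 × 50 mm, 1.8 μm) at 100 μL/min with water and acetonitrile, each with 0.1% formic acid. Detection was by quadrupole time-of-flight mass spectrometry in positive and negative ionization mode, with a dead volume of 40 μL and a dwell volume of 900 μL.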
Regarding `Cc1cc(C)cc(NC(=O)Nc2ccc3nc(N4CCN(C)CC4)cc(C)c3c2)c1`, the RP-LC retention time was 620 s.

In the case of `Cc1cc(N2CCN(C(=O)c3ccc(N(C)C)cc3)CC2)nc2nnc(C)n12`, the RP-LC retention time turned out to be 579 s.

Turning to `COCc1noc(C2CN(C(=O)c3ocnc3C)CC23CCCC3)n1` (stereo not drawn), the RP-LC retention time was 733 s.

`COc1ccc(Cc2nc3nccc(-c4ccc(OC)cc4)n3n2)cc1` yielded an RP-LC retention time of 878 s.

The compound `CN(Cc1ccco1)C(=O)c1ccc(NC(=O)C2CC2)cc1N1CCCCCC1` displayed an RP-LC retention time of 869 s.

In the case of `COCCN(CCOC)C(=O)C12CCC(C)(C(=O)C1)C2(C)C` (stereo not drawn), the RP-LC retention time came to 706 s.

In turn, `CC(C)C(=O)Nc1ccc2nc(N3CCN(CC(=O)N4CCCC4)CC3)cc(C(=O)O)c2c1` showed an RP-LC retention time of 561 s.

`COc1ccc(N2CCN(C(=O)Cn3ccc4c(SCc5ccc(F)cc5)nccc43)CC2)cc1`: the RP-LC retention time stood at 759 s.

`Cc1noc(C)c1Cc1ccc(C(=O)N2CCCC(c3[nH]ccc3C(N)=O)C2)o1` (stereo not drawn) displayed an RP-LC retention time of 649 s.

In turn, `COc1ccccc1NS(=O)(=O)c1c(C)nn(-c2ccc(-c3ccc(C)cc3)nn2)c1C` yielded an RP-LC retention time of 1150 s.

Take `CCn1cc(S(=O)(=O)NCc2ccc(F)cc2Cl)c2cccnc21`: the RP-LC retention time turned out to be 855 s.

As to `CCOc1ccccc1NC(=O)N1CCc2nc[nH]c2C1`, the RP-LC retention time was 577 s.

For `COc1ccc(NC(=O)CN2CCc3c(c(=O)c4cc(C)ccc4n3C)C2)cc1Cl`, the RP-LC retention time turned out to be 638 s.

Regarding `CC(C)(C)n1nc(C2CC2)cc1NC(=O)Nc1ccccc1`, the RP-LC retention time came out at 889 s.

`O=C(CSc1nccc(-c2ccc3c(c2)OCO3)n1)c1ccc2c(c1)OCO2`: the RP-LC retention time amounted to 888 s.

Consider `CN(C)CCCNC(=O)Cn1c(=O)n(-c2ccc(F)cc2)c2ncccc21`, for which the RP-LC retention time is 577 s.

In turn, `O=C(NCc1ccco1)C1CCN(c2ncccc2-c2nc(-c3cccc(Cl)c3)no2)CC1` had an RP-LC retention time of 1060 s.

In turn, `O=C(Nc1ccc(F)cc1F)N1CCN(CCn2c(-c3ccncc3)nc3cccnc32)CC1` gave an RP-LC retention time of 581 s.

Take `Clc1ccccc1N1CCN(c2nccn3nc(-c4ccccc4)cc23)CC1`: the RP-LC retention time came out at 1330 s.

`Cc1ccc(NC(=O)c2csc(-c3cn(C)c4ncccc34)n2)c(F)c1`: the RP-LC retention time stood at 1160 s.

In turn, `CN(C)c1cc(N2CCCC(NC(=O)c3cccn3C)C2)ncn1` (stereo not drawn) gave an RP-LC retention time of 571 s.

Consider `Cc1nc(-c2ccccc2)cc2nn(CC(=O)Nc3cc(F)cc(F)c3)c(=O)n12`, for which the RP-LC retention time was determined as 998 s.

As to `CC1CCCCN1CCCNC(=O)CCCn1c(=O)c2cccn2c2ccccc21` (stereo not drawn), the RP-LC retention time is 627 s.

`COc1ccc(C)cc1NS(=O)(=O)c1cc2c3c(c1)CCC(=O)N3CCC2` gave an RP-LC retention time of 973 s.

Consider `CCCCNC(=O)Cc1csc(-n2nc(C)c(Cl)c2C)n1`, for which the RP-LC retention time came to 763 s.

As to `Cc1cc(C)cc(NC(=O)C2CCCN(S(=O)(=O)c3c[nH]c(C(=O)N4CCCC4)c3)C2)c1` (stereo not drawn), the RP-LC retention time is 874 s.

Consider `O=C(Nc1nc(-c2nc3ccccc3s2)cs1)c1coc2ccccc2c1=O`, for which the RP-LC retention time worked out at 1160 s.

Compound `COc1ccccc1NC(=O)Oc1cccc(OC(=O)c2ccccc2)c1` had an RP-LC retention time of 653 s.

The compound `Cc1cc(C)cc(NC(=O)N2CCC(n3cnc4cc(F)ccc4c3=O)CC2)c1` returned an RP-LC retention time of 846 s.

Regarding `CCOc1ccc(OCC)c(N2C=C(C#N)S(=O)(=O)c3c(F)cccc32)c1`, the RP-LC retention time came out at 923 s.

For `CCn1cc(S(=O)(=O)N2CCN(c3ccccc3)CC2)c2cccnc21`, the RP-LC retention time came out at 969 s.

The compound `CCC(=O)N(C1CCOCC1)C1CCN(S(=O)(=O)c2cccc(Cl)c2)CC1` came in with an RP-LC retention time of 872 s.

For `Cc1ccc2c(Nc3ccc(C)c(F)c3)c(C(=O)N3CCSCC3)cnc2n1`, the RP-LC retention time was determined as 642 s.

As for `COc1ccc(-c2nc(-c3ccc4nncn4c3)no2)c(OC)c1`, the RP-LC retention time was 800 s.

For `Cc1cc(C(=O)N2CCC3(CC2)NCc2ccccc2-n2ccnc23)nn1C`, the RP-LC retention time is 576 s.

`CCOc1cc(CNCCc2c[nH]c3ccccc23)ccc1Oc1nnnn1-c1ccccc1` showed an RP-LC retention time of 780 s.

In turn, `Cc1ccccc1-c1ccc(N2CCC(C(=O)Nc3ccc4c(c3)OCCO4)CC2)nn1` showed an RP-LC retention time of 634 s.

`Cc1c2cnn(-c3ccccc3)c(=O)c2c(C)n1C(C)C(=O)NCCN1CCCC1` (stereo not drawn) returned an RP-LC retention time of 617 s.

On to `CC(=O)N1CCc2cc(N3CC(C(=O)Nc4cccc(C(F)(F)F)c4)CC3=O)ccc21` (stereo not drawn), for which the RP-LC retention time came to 791 s.

`CCn1c(=O)oc2cc(-c3noc(COc4ccccc4)n3)ccc21` came in with an RP-LC retention time of 1020 s.

As to `COc1ccc(-c2n[nH]c3c2C(c2cc(OC)ccc2OC)NC3=O)cc1` (stereo not drawn), the RP-LC retention time was found to be 729 s.

In the case of `CN1c2ccccc2C(=O)NC12CCN(C(=O)Nc1cccc(Cl)c1)CC2`, the RP-LC retention time is 804 s.

`Cc1nn(-c2nc(-c3ccc(F)cc3)cs2)c(C)c1CC(=O)Nc1ccc(Cl)cc1` displayed an RP-LC retention time of 1190 s.

On to `CCc1cc(=O)n(CC(=O)Nc2ccc(OC)c(F)c2)c(N)n1`, for which the RP-LC retention time is 788 s.

`Cn1cc(S(=O)(=O)N2CCCCC2)cc1C(=O)N1CCN(c2ccccc2F)CC1` came in with an RP-LC retention time of 961 s.

In turn, `O=C(c1ccc2ccnc(N3CCN(c4ccc(Cl)cc4)CC3)c2c1)N1CCCCCC1` yielded an RP-LC retention time of 986 s.

As to `COc1cccc(N2CCN(C(=O)C3CCCN(c4nc5ncccc5n5cccc45)C3)CC2)c1` (stereo not drawn), the RP-LC retention time was determined as 696 s.

Consider `NC(=O)Cn1c(CNC(=O)c2ccccc2)nc2ccccc21`, for which the RP-LC retention time was 573 s.

Consider `CC(C)(NC(=O)C1CCCO1)c1nc2c(c(C(N)=O)n1)OCO2` (stereo not drawn), for which the RP-LC retention time is 563 s.

`CN(C)CCNC(=O)c1ccc(-c2ccnc(N3CCCC3)n2)cc1` had an RP-LC retention time of 560 s.

On to `Cc1ccc(CN2CCN(C3CCN(C(=O)Nc4ccc(F)c(Cl)c4)CC3)C(=O)C2=O)cc1`, for which the RP-LC retention time was 849 s.

Regarding `CCC1CN(CC(=O)NCCN(CC)CC)c2ccccc2S1` (stereo not drawn), the RP-LC retention time came to 680 s.

Compound `COc1ccc(-c2noc(Cn3ccn(-c4ccc(Cl)cc4)c(=O)c3=O)n2)cc1OC` displayed an RP-LC retention time of 803 s.

For `CC(C)(C)c1onc(OCP(=O)(O)O)c1CC(N)C(=O)O` (stereo not drawn), the RP-LC retention time came out at 594 s.

`Cc1ccc(NC(=O)C2CCCN(S(=O)(=O)c3c[nH]c(C(=O)N4CCCC4)c3)C2)c(C)c1` (stereo not drawn) returned an RP-LC retention time of 814 s.

In turn, `CCn1c(C2CCN(S(=O)(=O)Cc3ccc(F)cc3Cl)C2)nc2ccncc21` (stereo not drawn) came in with an RP-LC retention time of 561 s.

`Cc1c(C)n(CCCN2CCOCC2)c2ncn3nc(C(C)N4C(=O)c5ccccc5C4=O)nc3c12` (stereo not drawn) registered an RP-LC retention time of 662 s.

Consider `COc1ccc(C2(C(=O)N3CC(c4nc(CCOCC5CCOCC5)no4)C3)CC2)cc1`, for which the RP-LC retention time came out at 812 s.

As for `O=S(=O)(c1cccn2c(SCc3cccc(Br)c3)nnc12)N1CCCCC1`, the RP-LC retention time was found to be 930 s.

Consider `O=C(Cc1nnc2cc(-c3nc(C4CC4)no3)ccn12)NC1CC1`, for which the RP-LC retention time was 646 s.

For the compound `CC1=C(c2cccc(Cl)c2)S(=O)(=O)N=C1N1CCCN(C(=O)C2CCC2)CC1`, the RP-LC retention time was 850 s.

In turn, `CCN(Cc1ccncc1)C1CN(S(=O)(=O)c2ccc3c(c2)CCC3)C1` came in with an RP-LC retention time of 686 s.

For the compound `CCNc1cc(N2CCCC(CCC(=O)NC3CCCC3)C2)ncn1` (stereo not drawn), the RP-LC retention time is 646 s.

On to `O=C(NC1CC1)c1ccc(N2CCC(NCc3ccc(C(F)(F)F)cc3)C2)nc1` (stereo not drawn), for which the RP-LC retention time was 663 s.

In turn, `COc1ccc(-c2nc(C)c(CCNS(=O)(=O)c3ccc4c(c3)OCCO4)s2)cc1` yielded an RP-LC retention time of 831 s.

With `Cc1cc2c(cc1S(=O)(=O)N1CCCC1C(=O)Nc1ccc(F)cc1)OCC(=O)N2` (stereo not drawn), the RP-LC retention time was determined as 743 s.

Compound `Cc1cc(N2CCN(C)CC2)n2nc(-c3ccc(Cl)cc3)nc2n1` returned an RP-LC retention time of 658 s.

Regarding `CCOC(=O)c1nc(N(CCC(=O)OC)c2ccccc2)c2ccccc2n1`, the RP-LC retention time was 919 s.

In turn, `Cc1oc(-c2ccc(C(=O)NCCN(C)C)cc2)nc1CSc1ccccc1` had an RP-LC retention time of 696 s.

Turning to `CCC(=O)n1nc(-c2ccccc2C)nc1N`, the RP-LC retention time was 875 s.

Compound `Cc1ccc(CNC(=O)C2(C)CN(S(C)(=O)=O)CC(=O)N2c2ccc(Cl)cc2C)cc1` (stereo not drawn) showed an RP-LC retention time of 919 s.

In turn, `CCn1ccc(C(=O)N2CCN(c3nnc4ccc(Cl)cn34)CC2)n1` displayed an RP-LC retention time of 562 s.

In turn, `CCc1nc(-c2cc(S(=O)(=O)N3CCC(C(=O)Nc4cccc(C#N)c4)CC3)c(C)s2)no1` yielded an RP-LC retention time of 1020 s.

`CCn1cc(C)c(C(=O)O)c1CC(=O)N(C)c1ccc(C)c(C)c1`: the RP-LC retention time amounted to 1000 s.

As for `CCCn1cc(C(=O)NCCC2=CCCCC2)c2nn(-c3ccccc3)c(=O)c-2c1`, the RP-LC retention time amounted to 1090 s.

`Cc1nc(OCC(=O)Nc2ccc(Br)cc2)c2ccccc2n1` returned an RP-LC retention time of 794 s.

Compound `Cc1cccc(OCC(=O)N(Cc2ccc(N(C)C)cc2)C2CCS(=O)(=O)C2)c1C` (stereo not drawn) came in with an RP-LC retention time of 798 s.

In the case of `O=C(Nc1ccc(OC(F)(F)F)cc1)C1CCN(S(=O)(=O)c2ccc3[nH]c(=O)ccc3c2)CC1`, the RP-LC retention time was 831 s.
